These compounds were tested on P. falciparum 3D7 growth, pLDH absorbance (assay: blood-stage malaria parasite growth potency – strain 3D7, dose response (AID 2305)).
For `COc1ccc(NC(=O)[C@H](Cc2ccccc2)Nc2cc(C)nc(NCc3ccccc3C)n2)cc1`, the IC50 was 790 nM.
Compound `COc1c(C2CCN(CCCCNC(=O)c3ccc(NC(=O)c4ccc(C#N)cc4)cc3)CC2)ccc2c1CCCC2` has an IC50 of 290 nM.
Compound `COc1ccc(-c2cnc3ccc(N4CCCC4)nn23)cc1OC` has an IC50 of 770 nM.
`COc1ccccc1CNc1ccnc(NCCc2cccc(C(F)(F)F)c2)n1` showed an IC50 of 930 nM.
`Cc1cccc2[nH]c(-c3ccc(-c4cccc(CNCC5CCCO5)c4)s3)nc12` (centres undefined) showed an IC50 of 970 nM.
`CCCNCc1ccc(-c2ccc(CN(CCOC)C(=O)CCC(=O)c3ccc(OC)c(F)c3)cc2)nc1` gave an IC50 of 680 nM.
With `COc1ccc2nccc(NCC3(O)CCC(NCc4cc5c(cn4)OCCO5)CC3)c2n1` (centres undefined) the IC50 was 660 nM.
In the case of `O=C(NCC1CCN(Cc2cccc(C(F)(F)F)c2)C1)c1cc(-c2cccc(F)c2)cs1` (centres undefined), the IC50 is reported as 1180 nM.
`CCOc1c(CNCCCNc2cc(=O)c3ccccc3[nH]2)cc(Br)cc1OC` gave an IC50 of 1160 nM.
With `COc1ccc(NC(=O)/C=C/c2ccccc2Cl)cc1OCCN1CCN(c2ccncc2)CC1` the IC50 was 730 nM.
For `O=C(NC1CCN(Cc2ccccc2)CC1)c1ccc2c(=O)n(Cc3ccc(Cl)cc3)c(=S)[nH]c2c1`, the IC50 was 1000 nM.
`CC(Cc1ccc(COc2ccc(CC(CO)NCCc3cccc(Cl)c3)cc2)cc1)NCCc1cccc(Cl)c1` (centres undefined) showed an IC50 of 820 nM.
Work on `O=C(CCCCCNC(=O)c1ccc(O)c(-c2ccc(Cl)c(Cl)c2)c1)NC1CCCCCC1` yielded an IC50 of 950 nM.
`COc1cccc(C(=O)NC(NC(=S)Nc2ccc(OC)cc2[N+](=O)[O-])C(Cl)(Cl)Cl)c1` (centres undefined) gave an IC50 of 760 nM.
With `CN(/N=C/C=C/c1ccc(Cl)cc1)c1nc(NCCc2ccc(O)cc2)nc(N2CCNCC2)n1` the IC50 was 870 nM.
In the case of `C=CCn1c(Sc2ccc(C#N)c([N+](=O)[O-])c2)nnc1-c1cc(OC)cc(OC)c1`, the IC50 is reported as 440 nM.
With `COc1ccc(S(=O)(=O)N2CCC(NS(=O)(=O)c3ccc(F)cc3)CC2)cc1` the IC50 was 1330 nM.
`N=C(N)c1ccc(Nc2nc(Nc3ccc(-c4ccccc4)cc3)ncc2[N+](=O)[O-])cc1` was tested, and the IC50 was 800 nM.
For `CCCCOc1ccc(C(O)C(CN2CCCCC2)c2ccccc2)cc1` (centres undefined), the IC50 was 890 nM.
For `CNCCNCc1ccc(-c2ccc(-c3nc4c(C)cccc4[nH]3)s2)cc1`, the IC50 was 730 nM.
`CCn1cnc2c(N3CCCCS3(=O)=O)cc(C(=O)N[C@@H](Cc3ccccc3)[C@H](O)CNC3CCOCC3)cc21` gave an IC50 of 710 nM.
In the case of `CCN(CC)CCOc1ccc(C(O)(C#CC(O)(c2ccc(C)cc2)c2ccc(OCCN(CC)CC)cc2)c2ccc(C)cc2)cc1` (centres undefined), the IC50 is reported as 900 nM.
For `COc1cc(CNc2ccc(N3CCCC3)cc2)cc(Cl)c1OC`, the IC50 was 700 nM.
Work on `Cn1cccc1C(=O)Nc1cccc(-c2nn3ccccc3c2-c2ccnc(Nc3ccc4c(c3)OCCO4)n2)c1` yielded an IC50 of 1350 nM.
With `Cc1ccc2c(c1)NC[C@@]21CCN(C[C@@H](O)C2CCN(c3cc(C#N)ccn3)CC2)C[C@@H]1C` the IC50 was 610 nM.
`CCCSc1nc2c(c(=O)n1Cc1ccco1)C1(CCCCC1)Cc1ccccc1-2` gave an IC50 of 420 nM.
`CN(C)CCCOc1ccc(-c2nc(-c3ccc4c(c3)CCC4=NO)c(-c3ccncc3)[nH]2)cc1` gave an IC50 of 830 nM.
`Cc1cccc2[nH]c(-c3cccc(-c4ccc(NC(=O)C(C)CN5CCOCC5)cc4)c3)nc12` (centres undefined) was tested, and the IC50 was 690 nM.
For `O=C(Nc1cccc(Cl)c1)OC1CCCN2CCCCC12` (centres undefined), the IC50 was 1020 nM.
With `Cc1noc(C)c1S(=O)(=O)N(C)Cc1ccc(-c2ccc(Cl)cc2)o1` the IC50 was 360 nM.
`CC(C)(CNCc1ccc(Cl)c(Cl)c1)c1nc(-c2ccc(Cl)c(O)c2)c(-c2ccncc2)[nH]1` gave an IC50 of 760 nM.
With `COc1ccc(CCNCc2ccc3nc(N)c(C)cc3c2)cc1` the IC50 was 990 nM.
Work on `Cc1cc(-c2cccc3c(NC(=O)N4CCc5cc6nccc(N7CCN8CCC[C@H]8C7)c6cc54)cccc23)cc(C)n1` yielded an IC50 of 490 nM.
With `CCN1CCC(N(Cc2ccc(-c3ccc(C(F)(F)F)cc3)cc2)C(=O)Cn2c(CCc3cccc(F)c3F)cc(=O)c3ccccc32)C1` (centres undefined) the IC50 was 1010 nM.
Compound `CC(C)COc1ccc(Cl)cc1Cc1nc(-c2nc3c(CN4CCN(C)CC4)cccc3[nH]2)cs1` has an IC50 of 1330 nM.
For `CNC(=O)c1cc(S(=O)(=O)N2CCN(c3ccccn3)CC2)c(C)s1`, the IC50 was 1160 nM.
Compound `C=CCOC(=O)N1CCC(CNCc2cccc(-c3ccc(-c4nc5ccccc5[nH]4)s3)c2)C1` (centres undefined) has an IC50 of 270 nM.
`Cc1cc(N[C@@H](Cc2ccccc2)C(=O)Nc2ccccc2)nc(NCC2CCCCC2)n1` was tested, and the IC50 was 760 nM.
With `O=C(Nc1ccccc1)NC1CCN(CCC2(c3ccc(Cl)c(Cl)c3)COCN(C(=O)c3ccccc3)C2)C1` (centres undefined) the IC50 was 880 nM.
For `Cc1ccc(NC(=O)c2ccc(CN3CCCN(Cc4cccc(Cl)c4)CC3)cc2)cc1C`, the IC50 was 1210 nM.
Work on `COc1cc2nccc(Nc3ccc4c(cnn4Cc4ccccc4F)c3)c2cc1OC` yielded an IC50 of 400 nM.
For `CCC[C@@H]([C@@H](CC1CCCCC1)C(=O)NC(C(=O)Nc1nccs1)C(CC)c1ccccc1)N(O)C=O` (some centres undefined), the IC50 was 690 nM.
In the case of `Cc1cccc2[nH]c(-c3cccc(-c4cccc(NC(=O)COc5ccccc5C(N)=O)c4)c3)nc12`, the IC50 is reported as 160 nM.
With `Cc1ccc(Nc2nc(NN=Cc3ccc(-c4ccc([N+](=O)[O-])cc4)o3)nc(N3CCOCC3)n2)cc1Cl` the IC50 was 650 nM.
`COc1cc(C(C)C)ccc1C1CCN(CCCCNC(=O)c2ccc(NC(=O)c3ccc(Cl)cc3)cc2)CC1` was tested, and the IC50 was 450 nM.
Compound `COc1ccc(-c2ccc(S(=O)(=O)Nc3cc4c(cc3OC(C)C)CCNCC4)cc2)cc1` has an IC50 of 970 nM.
`N#Cc1cccc(C(=O)NC2CCN(CCCCCNC(=O)/C=C/c3ccc(Cl)c(Cl)c3)CC2)c1` was tested, and the IC50 was 880 nM.
With `N#Cc1ccc2c(c1)CN(CCC1CCC(NC(=O)c3cc4cnccc4[nH]3)CC1)CC2` (centres undefined) the IC50 was 800 nM.
For `CNc1nc(Nc2ccccc2C)nc2ccccc12`, the IC50 was 440 nM.
For `COc1ccc(NC(=O)NC2CCN(CCCOc3cc(C)nc4ccccc34)CC2)cc1OC`, the IC50 was 1280 nM.
`CNCCNCc1cccc(-c2ccc(-c3nc4ccc(C(F)(F)F)cc4[nH]3)s2)c1` gave an IC50 of 820 nM.
`Cc1nc(-c2ccc(-c3ccc(C(=O)Nc4ccc(I)c(OCC5CCCN5C)c4)cc3)c(C)c2)no1` (centres undefined) showed an IC50 of 30 nM.
With `O=C(Nc1ccc(-c2nc3ccccc3[nH]2)cc1)c1cccc(S(=O)(=O)N2CCCC2)c1` the IC50 was 740 nM.
For `COc1cccc2cc(C(=O)N[C@@H](CC(C)C)C(=O)N[C@H](/C=N/NC(=O)OC(C)(C)C)CC(=O)OC(C)(C)C)oc12`, the IC50 was 400 nM.
Compound `C#Cc1cccc(NC(=O)[C@H](CC2CCCCC2)Nc2ccc(C#N)c3ccccc23)c1` has an IC50 of 590 nM.
Compound `Cc1cccc2[nH]c(-c3ccc(-c4cccc(NC(=O)NCc5ccc(F)cc5)c4)cc3)nc12` has an IC50 of 150 nM.
`c1ccc(CCNc2ccnc(Nc3ccc4n[nH]nc4c3)n2)cc1` gave an IC50 of 860 nM.
With `COc1ccccc1CNc1ccnc(N2CC(Oc3ccc(F)cc3)C2)n1` the IC50 was 850 nM.
In the case of `COc1ccc2ncc(F)c([C@@H](O)CN3CCC(NCc4cc(C#N)c5c(c4)CCO5)CC3)c2n1`, the IC50 is reported as 890 nM.
Work on `CC(Cc1ccc(CN2CCN(Cc3ccccc3)CC2)cc1)NCC(O)c1cccc(C(F)(F)F)c1` (centres undefined) yielded an IC50 of 890 nM.
`CC(c1cccc(Nc2nccc(-c3c(-c4cccc(NC(=O)c5c(F)cccc5F)c4)nn4ccccc34)n2)c1)S(C)(=O)=O` (centres undefined) showed an IC50 of 60 nM.
For `CN1CCN(Cc2ccc(-c3ccc4c(Nc5cc(O)c(F)cc5Cl)ccnc4c3)o2)CC1`, the IC50 was 130 nM.
Work on `CCNc1cc(C)nc(Nc2ccc(NC(=O)c3ccccc3)cc2)n1` yielded an IC50 of 1020 nM.
For `NC(=O)c1ccc(NCC(=O)Nc2cccc(-c3cccc(-c4nc5ccc(F)cc5[nH]4)c3)c2)cc1`, the IC50 was 870 nM.
Compound `O=C1c2ccccc2C(=O)N1CCOc1c(Br)cc(Br)cc1CNCCCNc1cc(=O)c2ccccc2[nH]1` has an IC50 of 840 nM.
For `COc1ccc(NC(=O)/C=C/c2cc(F)cc(C(F)(F)F)c2)cc1OCCN(C(C)C)C(C)C`, the IC50 was 670 nM.
In the case of `COc1ccc2nccc([C@@H](O)CN3CCC(NCCNc4cccc(F)c4)CC3)c2c1`, the IC50 is reported as 180 nM.
Work on `CCNc1cc(C(=O)N[C@@H](Cc2ccccc2)[C@H](O)CNCCCc2ccc(OC)cc2)cc(N2CCCC2=O)c1` yielded an IC50 of 560 nM.
For `O=C(C=Cc1ccc(Cl)c(Cl)c1)NCCCCCN1CCC(CCCNC(=O)c2ccc3c(c2)OCO3)CC1`, the IC50 was 150 nM.
`CN(C)c1ccc(C(c2ccc(N(C)C)cc2)c2cc([N+](=O)[O-])ccc2Cl)cc1` gave an IC50 of 910 nM.
In the case of `CCCCN(Cc1cccc(C(F)(F)F)c1Cl)c1ccc(C(O)(C(F)(F)F)C(F)(F)F)cc1`, the IC50 is reported as 960 nM.
`Cc1[nH]c(C)c(-c2ccc(OCc3ccc(F)cc3)cc2)c(=O)c1Br` showed an IC50 of 80 nM.
For `Cc1ccc(C(=O)Nc2ccc(OC3CCN(CCC(C)C)C3)c(Cl)c2)cc1` (centres undefined), the IC50 was 990 nM.
`Cc1cc(-c2ccc(S(=O)(=O)Nc3cc4c(cc3OC(C)C)CCN(C)CC4)cc2)ccc1Cl` showed an IC50 of 900 nM.
`Cc1nnsc1C(=O)Nc1cccc(-c2ccc(-c3nc4ccc(F)cc4[nH]3)cc2)c1` showed an IC50 of 100 nM.
Work on `CC(Oc1c(C2CCN(CCCCNC(=O)c3ccc(-c4ccc(Cl)cc4)cc3)CC2)ccc2c1CCCC2)C(N)=O` (centres undefined) yielded an IC50 of 950 nM.
`COc1ccc2nccc([C@@H](O)CN3CCC(NC(=O)CCC(=O)c4cc(C(C)(C)C)ccc4OC)CC3)c2c1` gave an IC50 of 850 nM.
Work on `CC(C)C(C)(C#N)NC(=O)CSc1nc2ccc([N+](=O)[O-])cc2s1` (centres undefined) yielded an IC50 of 1030 nM.
With `CCNCc1cccc(-c2ccc3ccnc(N)c3c2)c1` the IC50 was 50 nM.
Work on `Cc1ccc(OC2CCN(c3ccc(C(=O)NC4CC4)cn3)CC2)cc1` yielded an IC50 of 1300 nM.
With `C#CCOc1ccccc1CN1CCC(N2CCc3cc(NC(=O)c4cc(C)on4)ccc32)C1` (centres undefined) the IC50 was 680 nM.
`CCCc1cc(N2CCC(N3CCCC3)CC2)nc(Nc2ccc(Cl)cc2)n1` showed an IC50 of 760 nM.
For `COC(=O)C(Cc1ccccc1)C(CSCc1ccc(OC)cc1)C(=O)N[C@@H](C(=O)OC(C)(C)C)c1ccc(C(C)(C)C)cc1` (some centres undefined), the IC50 was 1030 nM.
Work on `COc1cccc(OC)c1OCCCON1C(N)=NC(N)=NC1(C)C` yielded an IC50 of 10 nM.
`Nc1nc(N)c2c(ccc3nn(Cc4cccnc4)cc32)n1` gave an IC50 of 360 nM.
Compound `Cc1cc(CNC(=O)[C@H](CC2CCCCC2)Nc2ccc(C#N)c3ccccc23)c(C(F)(F)F)o1` has an IC50 of 1180 nM.
`c1cc(CN2CCCCC2)cc(-c2cccc(-c3nc4ccccc4[nH]3)c2)c1` was tested, and the IC50 was 830 nM.
`Nc1c(Cl)cc(C(O)CNCCCCCOCCCc2ccc(O)c3ncccc23)cc1Cl` (centres undefined) gave an IC50 of 990 nM.
Work on `Cc1ccc(NC(=O)Nc2cccc(Cl)c2)cc1-c1ccc(C(=O)Nc2ccncc2)cc1` yielded an IC50 of 740 nM.
`O=C(/C=C/c1ccc(Cl)cc1Cl)NC1CCC(CN2CCC(c3c[nH]c4ccccc34)CC2)CC1` (centres undefined) was tested, and the IC50 was 800 nM.
`CC(=O)Nc1cccc(C(=O)Nc2ccc(-c3cccc(-c4nc5c(C)cccc5[nH]4)c3)cc2)c1` showed an IC50 of 790 nM.
`O=C(/C=C/c1ccc(Cl)c(Cl)c1)NCCCCCCN1CCCN(C(=O)Nc2cccc(Cl)c2)CC1` showed an IC50 of 860 nM.
For `CC(=O)c1ccc(O)c(CC(O)CO)c1` (centres undefined), the IC50 was 720 nM.
`Nc1nc(Nc2cccc(Cl)c2)ncc1C(=O)NCc1ccncc1` gave an IC50 of 830 nM.

Source: PubChem BioAssay AID2305 (GlaxoSmithKline (GSK), 2010)
